Experiments:
[1] = molecular target: T1, GluD2-Lc(D542Y)-(HS2)GluN1 (Rattus norvegicus, UniProt Q63226, A654T/A766F/D542Y/D767R/N763E/R768S/T764L/V761T/V765F); experiment: Two-electrode voltage clamp in Xenopus oocytes, inhibition of spontaneous currents; type: cell-based
T1 construct: the function of full-length receptors as well, we introduced them into the GluD2 lurcher mutant (GluD2-Lc); expressed in transfected cells; host or cells: Xenopus laevis oocytes injected with cRNA
T1 sequence (Q63226 24-1007 D542Y/A654T/V761T/N763E/T764L/V765F/A766F/D767R/R768S): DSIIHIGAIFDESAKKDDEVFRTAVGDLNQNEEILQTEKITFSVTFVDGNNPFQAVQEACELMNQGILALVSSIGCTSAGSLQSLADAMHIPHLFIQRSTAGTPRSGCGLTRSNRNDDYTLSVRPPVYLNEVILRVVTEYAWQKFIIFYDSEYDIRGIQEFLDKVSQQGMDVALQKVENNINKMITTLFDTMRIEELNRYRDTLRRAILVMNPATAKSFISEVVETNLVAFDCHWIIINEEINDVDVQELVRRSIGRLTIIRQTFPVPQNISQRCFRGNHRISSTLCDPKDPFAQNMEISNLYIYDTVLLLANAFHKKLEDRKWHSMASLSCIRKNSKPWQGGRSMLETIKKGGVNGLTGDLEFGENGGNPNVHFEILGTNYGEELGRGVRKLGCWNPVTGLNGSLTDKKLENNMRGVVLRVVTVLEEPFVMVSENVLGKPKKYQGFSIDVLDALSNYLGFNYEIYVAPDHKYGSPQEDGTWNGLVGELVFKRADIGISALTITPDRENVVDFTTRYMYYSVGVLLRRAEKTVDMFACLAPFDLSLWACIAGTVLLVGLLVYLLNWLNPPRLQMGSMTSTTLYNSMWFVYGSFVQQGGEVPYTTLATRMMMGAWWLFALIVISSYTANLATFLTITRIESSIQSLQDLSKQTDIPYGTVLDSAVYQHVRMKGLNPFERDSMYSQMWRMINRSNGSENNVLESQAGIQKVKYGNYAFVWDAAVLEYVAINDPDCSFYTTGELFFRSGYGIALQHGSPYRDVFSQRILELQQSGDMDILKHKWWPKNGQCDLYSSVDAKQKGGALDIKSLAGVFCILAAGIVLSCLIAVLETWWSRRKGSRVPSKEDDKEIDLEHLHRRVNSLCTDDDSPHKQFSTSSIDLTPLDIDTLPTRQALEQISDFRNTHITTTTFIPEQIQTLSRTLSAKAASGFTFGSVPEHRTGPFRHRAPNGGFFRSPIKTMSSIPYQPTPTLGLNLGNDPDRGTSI
From the text: All cDNAs for expression in Xenopus oocytes were cloned into the vector pSGEM[30]. Point mutants of GluD2-Lc were constructed by overlap extension PCR with mutagenic oligonucleotide primers. The GluD2-Lc-(H)GluN1 chimera was constructed by transferring the S1- and S2-encoding sequences from GluD2-LBD-(H)GluN1 to GluD2-Lc via overlap extension PCR using tail primers. The S1 and S2 sequences were transferred separately, yielding GluD2-Lc-(HS1)GluN1 and GluD2-Lc-(HS2)GluN1 constructs. GluD2-Lc-(H)GluN1 was then produced from these by another overlap extension PCR. Complementary RNA (cRNA) for injection into oocytes was synthesised from 1 μg of linearised template DNA with the mMESSAGE mMACHINE in vitro transcription kit (Ambion, Austin, TX, USA).
Oocytes were obtained by surgically removing parts of the ovaries from Xenopus laevis (Nasco, Fort Atkinson, WI, USA) anaesthetised with 1.5 g/L 3-aminobenzoic acid ethylester (Sigma, Taufkirchen, Germany). The ovary clippings were digested with 784 U/mL (4 mg/mL) collagenase type I (Worthington, Lakewood, NJ, USA) in Ca^2+-free Barth’s solution (88 mM NaCl, 1.1 mM KCl, 2.4 mM NaHCO3, 0.8 mM MgSO4, 15 mM HEPES-NaOH, pH 7.6) with gentle agitation for 1.5–2 h at 20 °C to remove the follicular cell layer. After stopping the collagenase digestion by washing with Barth’s solution (88 mM NaCl, 1.1 mM KCl, 2.4 mM NaHCO3, 0.3 mM Ca(NO3)2, 0.4 mM CaCl2, 0.8 mM MgSO4, 15 mM HEPES-NaOH, pH 7.6), defolliculated oocytes of stages V and VI were selected and maintained at 16 °C in Barth’s solution supplemented with 100 μg/mL gentamicin, 40 μg/mL streptomycin, and 63 μg/mL penicillin. Oocytes were injected with 11 ng cRNA (10 ng of each cRNA for co-expression of GluN1 and GluN2A) using a nanoliter injector (WPI, Sarasota, FL, USA). Four days after cRNA injection, current responses were recorded under voltage clamp at –70 mV with a Turbo Tec-10CD amplifier (npi electronic, Tamm, Germany) controlled by Patchmaster software (HEKA, Lambrecht, Germany). Currents were filtered with a 20 Hz low-pass filter and then digitised with a sampling rate of 50 Hz. Recording electrodes were pulled from borosilicate glass (Hilgenberg, Malsfeld, Germany) with an L/M-3P-A vertical pipette puller (List-Medical), filled with 3 M KCl, and had resistances of 0.5–5 MΩ (voltage electrode) or 0.5–1.5 MΩ (current electrode). Recordings were performed in a 50 μL chamber under constant superfusion with extracellular solution at a flow rate of 3–5 mL/min. […] Finally, Ba-NFR and then NMDGR were applied again to check for reversibility.

GluN3B LBD = molecular target: GluN3B LBD; parameters: method as in PMID 18636091; conditions: cited from earlier work

N[C@H](CO)C(=O)O [D-serine]
D-serine efficacy Mean ± SEM ([1]; fraction of spontaneous current inhibited by D-serine): –3.4 ± 0.5% | sensitivity to D-serine ([1]; inhibition of spontaneous currents): insensitive | Kd (GluN3B LBD): 163 nM
